# Results published in patent US7094593B1, “Method for improving the function of heterologous G protein-coupled receptors” (priority 1998, dated 2006).
# Tests used:
# Ce 5HTR-M3 MAR IC3Δ = assay: Liquid culture yeast growth assay, Ce 5HTR containing the M3 MAR IC3Δ; assay type: cell-based, C. elegans; conditions: for antagonist effect on growth inducing effect of serotonin: antagonist at 10 μM
# Protocol: In order to construct the IC3 replacement, PCR fragments encoding three domains were prepared by standard means. Fragment 1 contains the amino terminal-coding portion of the Ce 5HTR to the intracellular interface of the 5th TMD, amplified by PCR using oligonucleotides ([…]) (SEQ ID NO: 27) and ([…] […] […]) (SEQ ID NO: 28). The second fragment of the Ce 5HTR contains carboxy-terminal coding sequences starting proximal to the intracellular interface of the 6th TMD, amplified by PCR using oligonucleotides ([…]) (SEQ ID NO: 29) and ([…] […] […]) (SEQ ID NO: 30). The M3 MAR IC3Δ domain was amplified by PCR as described in Example 1.
# These fragments were isolated, mixed and amplified by PCR with 5′ ([…]) (SEQ ID NO: 27) and 3′ ([…]) ([…]) oligonucleotides. The resulting fragment was digested with appropriate restriction endonucleases and assembled in p426GPD to place the mutated Ce 5HTR under control of the GPD promoter.
# Yeast cells containing the Ce 5HTR were assayed in liquid culture. […] In similar reactions, the serotonergic antagonists lisuride and mianserin were added to each well at 10 μM. […] Ki values were determined using the equation of Cheng and Pruesoff. (Y Cheng et al. (1973)).
# [1] = target: IC3Δ human alpha2A adrenergic receptor (Homo sapiens, UniProt P08913, DEL273-347)
# Protocol: (§2) Yeast cells containing the wild type IC3Δ human alpha2A adrenergic receptor were assayed in liquid culture using the alpha adrenergic receptor full agonist UK14304 (RBI) and partial agonist clonidine.
# [2] = target: wild type human alpha2A adrenergic receptor (Homo sapiens, UniProt P08913); conditions: yeast cells containing wild type receptor, 18 hours
# Protocol: as §2
# DMAR-M3 MAR IC3Δ = target: T1, DMAR-M3 MAR IC3Δ (Drosophila melanogaster, UniProt P16395, C285T/D301E/F279L/F286I/K296E/N304G/P303A/Q299T/R293K/W292Y); assay: Liquid culture yeast growth assay, mutated DMAR containing the M3 MAR IC3Δ; assay type: cell-based, D. melanogaster; conditions: yeast cells containing mutated DMAR with M3 MAR IC3Δ
# T1 construct: expressed in transfected cells; host or cells: Saccharomyces cerevisiae MPY578fc, plasmid p426GPD
# Protocol: (§1) In order to construct the IC3 replacement, PCR fragments encoding three domains were prepared by standard means. Fragment 1 consisted of the amino terminal coding portion of the Drosophila MAR up to an Agel site within the 5th TMD, amplified by PCR using oligonucleotides (AAA AGATCT AAA ATG […]) (SEQ ID NO: 7) and (CCA GTA GAG GAA […] AGGCCT AAGTAGAAGGCGGCCAGTGC) (SEQ ID NO: 8). The second fragment of the DMAR was composed of carboxy terminal coding sequences starting with a PmII site in the 6th TMD, amplified by PCR using oligonucleotides ([…]) (SEQ ID NO: 9) and (AAA CTCGAG […]) (SEQ ID NO: 10). The M3 MAR IC3Δ domain was amplified as an Agel-PmII fragment with coding sequence in frame with fragments 1 and 2, described in Example 1. These fragments were assembled in plasmid p426GPD to place the mutated DMAR under control of the GPD promoter. The wild type DMAR was cloned into the expression vector, pMP3, described in U.S. Pat. No. 5,691,188.
# [3] = target: T2, wild type D. melanogaster MAR (DMAR) (Drosophila melanogaster, UniProt P16395); assay: Liquid culture yeast growth assay, wild type DMAR; assay type: cell-based; conditions: yeast cells containing wild type DMAR
# T2 construct: expressed in transfected cells; host or cells: Saccharomyces cerevisiae MPY578fc, plasmid pMP3
# T2 sequence (P16395 1-805): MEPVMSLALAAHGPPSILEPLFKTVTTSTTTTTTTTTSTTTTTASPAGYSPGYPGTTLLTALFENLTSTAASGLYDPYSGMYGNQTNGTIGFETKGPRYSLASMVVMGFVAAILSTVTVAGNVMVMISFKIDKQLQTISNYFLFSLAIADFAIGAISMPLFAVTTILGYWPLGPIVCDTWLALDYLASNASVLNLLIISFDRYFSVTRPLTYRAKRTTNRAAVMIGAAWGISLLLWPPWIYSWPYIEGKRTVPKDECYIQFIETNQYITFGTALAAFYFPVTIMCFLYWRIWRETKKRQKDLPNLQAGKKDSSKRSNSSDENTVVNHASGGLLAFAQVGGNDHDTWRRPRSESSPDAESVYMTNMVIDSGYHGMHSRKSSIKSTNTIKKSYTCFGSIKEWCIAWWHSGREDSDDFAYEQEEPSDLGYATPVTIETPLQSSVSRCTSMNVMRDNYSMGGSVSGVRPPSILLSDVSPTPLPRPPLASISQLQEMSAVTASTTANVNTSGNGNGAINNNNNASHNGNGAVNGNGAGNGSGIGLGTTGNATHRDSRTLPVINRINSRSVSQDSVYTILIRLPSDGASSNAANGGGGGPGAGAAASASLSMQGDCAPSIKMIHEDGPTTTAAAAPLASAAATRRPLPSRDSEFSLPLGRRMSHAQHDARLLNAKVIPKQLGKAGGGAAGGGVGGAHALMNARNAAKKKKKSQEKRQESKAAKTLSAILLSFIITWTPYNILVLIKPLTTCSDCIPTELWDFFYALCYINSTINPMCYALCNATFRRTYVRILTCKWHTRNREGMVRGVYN
# Protocol: as §1
# Chain of IC3Δ human alpha2A adrenergic receptor (P08913 with tags, fused parts or gaps DEL273-347 limits assumed): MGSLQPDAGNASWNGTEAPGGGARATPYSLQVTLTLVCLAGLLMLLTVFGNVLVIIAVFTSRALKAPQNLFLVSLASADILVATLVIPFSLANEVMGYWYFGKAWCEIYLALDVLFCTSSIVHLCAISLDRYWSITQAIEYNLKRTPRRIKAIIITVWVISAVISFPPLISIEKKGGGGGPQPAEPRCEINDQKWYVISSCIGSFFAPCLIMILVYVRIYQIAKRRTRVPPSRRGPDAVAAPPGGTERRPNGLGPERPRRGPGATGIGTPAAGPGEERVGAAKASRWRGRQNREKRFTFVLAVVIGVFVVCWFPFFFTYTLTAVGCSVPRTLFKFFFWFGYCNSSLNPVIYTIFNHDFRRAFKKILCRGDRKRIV
# Chain of wild type human alpha2A adrenergic receptor (P08913 whole entry): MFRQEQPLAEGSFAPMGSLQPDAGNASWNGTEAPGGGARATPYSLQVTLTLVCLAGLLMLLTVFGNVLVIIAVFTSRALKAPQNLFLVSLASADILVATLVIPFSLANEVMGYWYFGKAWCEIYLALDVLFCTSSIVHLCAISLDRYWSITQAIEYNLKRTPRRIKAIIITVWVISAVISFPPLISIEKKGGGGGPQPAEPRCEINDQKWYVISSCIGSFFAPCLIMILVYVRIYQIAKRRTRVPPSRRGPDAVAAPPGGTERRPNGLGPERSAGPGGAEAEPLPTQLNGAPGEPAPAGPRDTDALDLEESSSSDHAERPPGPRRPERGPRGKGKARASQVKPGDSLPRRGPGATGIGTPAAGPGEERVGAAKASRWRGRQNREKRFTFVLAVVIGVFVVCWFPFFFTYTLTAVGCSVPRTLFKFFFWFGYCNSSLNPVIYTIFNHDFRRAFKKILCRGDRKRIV
# T1 sequence (P16395 other isoform, or with tags, fused parts or gaps F279L/C285T/F286I/W292Y/R293K/K296E/Q299T/D301E/P303A/N304G): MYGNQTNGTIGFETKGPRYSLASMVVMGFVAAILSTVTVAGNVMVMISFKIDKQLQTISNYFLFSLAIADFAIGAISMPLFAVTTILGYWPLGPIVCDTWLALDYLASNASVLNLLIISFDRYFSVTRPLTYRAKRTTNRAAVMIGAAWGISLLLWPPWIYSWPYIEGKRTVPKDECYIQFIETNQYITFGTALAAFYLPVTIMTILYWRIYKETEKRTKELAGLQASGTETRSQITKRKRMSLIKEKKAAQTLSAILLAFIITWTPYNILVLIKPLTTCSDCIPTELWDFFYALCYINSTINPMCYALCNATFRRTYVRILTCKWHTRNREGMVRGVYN
structure (smiles),measurement,setting,value
CN1CCN2c3ccccc3Cc3ccccc3C2C1 (stereo not shown) [mianserin],antagonist effect on growth inducing effect of serotonin,Ce 5HTR-M3 MAR IC3Δ,blocked
Brc1c(NC2=NCCN2)ccc2nccnc12 [UK14304],yeast cell growth response,[1],dose-dependent growth response
same,yeast cell growth response,[2],dose-dependent growth response
CCN(CC)C(=O)N[C@H]1C=C2c3cccc4[nH]cc(c34)C[C@H]2N(C)C1 [lisuride],antagonist effect on growth inducing effect of serotonin,Ce 5HTR-M3 MAR IC3Δ,blocked
NCCc1c[nH]c2ccc(O)cc12 [serotonin],agonist-dependent yeast cell growth,"Ce 5HTR-M3 MAR IC3Δ; yeast cells containing Ce 5HTR-M3 MAR IC3Δ, 18 hours",agonist-dependent growth response
C[N+](C)(C)CCOC(N)=O [carbachol],agonist-dependent yeast cell growth,DMAR-M3 MAR IC3Δ,agonist-dependent growth response
same,agonist-dependent yeast cell growth,[3],lack of agonist-dependent yeast cell growth
